Reference: patent US20240384268A1, “Oligonucleotides” (Hudson Institute of Medical Research, priority 2021, published 2024)
In the oligonucleotide strings, read from the 5' end, every base follows the letter of its sugar. An asterisk marks phosphorothioate; unmarked linkages are phosphodiester. Other units and linkages are bracketed, terminal groups are in braces. A string of capitals states the bases alone. d = 2'-deoxy (DNA); m = 2'-O-methyl

Experiments:
TLR8 [1] = biological target: T1, TLR8 (Homo sapiens, UniProt Q9NR97); test: HEK-TLR8 NF-κB-luciferase reporter, R848 or Motolimod stimulation (potentiation or inhibition); type: cell-based; design: expressed in transfected cells; host or cells: 293XLhTLR8 (HEK293); conditions: for TLR8 HEK 5 uM: 3mer 2'OMe ASO at 5 uM, value relative to Ligand only = 1.000, NT = 0.000; for effect of 3-mer 2′OMe PS oligos on TLR8 sensing in HEK-TLR8 (in words): 5 μM naked 3-mer, Motolimod; for TLR8 100 nM (averaged NF-κB-Luciferase level relative to R848 condition, fold increase): ASO 100 nM; for TLR8 100 nM (averaged NF-κB-Luciferase level relative to R848 condition, fold increase) / TLR8 500 nM (averaged NF-κB-Luciferase level relative to R848 condition, fold increase): relative to R848 only; for TLR8 500 nM (averaged NF-κB-Luciferase level relative to R848 condition, fold increase): ASO 500 nM
T1 sequence (Q9NR97 27-1041): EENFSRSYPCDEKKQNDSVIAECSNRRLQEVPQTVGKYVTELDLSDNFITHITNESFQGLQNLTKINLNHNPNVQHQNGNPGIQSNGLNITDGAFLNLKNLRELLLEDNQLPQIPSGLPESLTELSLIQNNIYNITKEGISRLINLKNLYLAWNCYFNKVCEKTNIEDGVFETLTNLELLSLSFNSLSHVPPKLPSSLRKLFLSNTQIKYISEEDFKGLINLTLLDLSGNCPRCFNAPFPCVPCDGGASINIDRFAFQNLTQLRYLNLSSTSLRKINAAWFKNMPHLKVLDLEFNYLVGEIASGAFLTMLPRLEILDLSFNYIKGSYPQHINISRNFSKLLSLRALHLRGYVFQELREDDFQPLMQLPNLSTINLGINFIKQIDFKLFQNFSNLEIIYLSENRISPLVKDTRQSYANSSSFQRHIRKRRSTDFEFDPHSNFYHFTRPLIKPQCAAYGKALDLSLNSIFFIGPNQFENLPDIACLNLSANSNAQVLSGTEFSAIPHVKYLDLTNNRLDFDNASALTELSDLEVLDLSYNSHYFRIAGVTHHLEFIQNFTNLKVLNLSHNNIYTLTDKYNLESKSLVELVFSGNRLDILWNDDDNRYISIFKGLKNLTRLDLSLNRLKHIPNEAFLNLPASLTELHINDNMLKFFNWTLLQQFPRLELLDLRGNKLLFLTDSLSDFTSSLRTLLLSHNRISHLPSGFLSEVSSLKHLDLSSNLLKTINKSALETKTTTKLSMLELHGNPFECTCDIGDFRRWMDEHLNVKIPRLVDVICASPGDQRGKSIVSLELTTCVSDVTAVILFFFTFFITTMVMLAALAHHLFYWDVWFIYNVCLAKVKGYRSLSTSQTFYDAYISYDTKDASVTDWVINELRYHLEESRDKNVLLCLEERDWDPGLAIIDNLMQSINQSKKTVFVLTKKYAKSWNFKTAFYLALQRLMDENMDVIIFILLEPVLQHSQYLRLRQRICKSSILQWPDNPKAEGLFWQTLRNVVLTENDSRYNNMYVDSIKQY
Procedure: (§1) In such examples, potentiation of TLR8 activity can be identified by observation of an overall increased TLR8 response of the cell population, or a higher proportion of cells having TLR8-positive activity as compared to a negative control condition in which cells are treated with TLR8 agonist in the absence of the oligonucleotide (or in the presence of an appropriate control non-potentiating agent). In one example, 293XLhTLR8 (referred to as HEK-TLR8) cells are transfected with pNF-κB-Luc4 reporter, incubated with an oligonucleotide, and then stimulated with R848. TLR8 activity can be determined by a luciferase assay, which measures activated NF-κB by luminescence. TLR8 activity can also be analysed by measuring cytokine levels, for example by ELISA.
as §1, with “inhibition” for “potentiation”, “decreased” for “increased”, “lower” for “higher”, “positive” for “negative”, “inhibitory” for “non-potentiating”
For cGAS stimulations, cells were treated for indicated duration with ASOs, prior to transfection with ISD70 (human cells) or ISD45 (mouse cells) (the ASOs were not washed off prior to ISD transfection unless otherwise indicated). The cGAS ligands ISD45 (Stetson and Medzhitov, 2006) and ISD70 (also known as VACV-70 (Unterholzner et al., 2010)) (Table 1) were resuspended as follows: 5 1d of sense and 5 μl of antisense strands at 10 μg/μl were added to 90 μl PBS under sterile conditions, heated at 75° C. for 30 min, prior to letting cool down at room temperature and aliquoting (stock at 1 μg/1 l). The ISDs were transfected at a concentration of […] at a ratio of 1 μg:1 μl with Lipofectamine 2000 in Opti-MEM (Thermo Fisher Scientific). HEK-TLR3, HEK-TLR7 and […] were treated with indicated concentration of ASOs for 20-50 min, prior to stimulation with poly(I:C) (Invivogen), R848 (Invivogen), Motolimod (MedChemExpress) and the Class B CpG oligonucleotides ODN 2006 (synthesised by IDT and resuspended in RNase-free TE buffer [Table 1]), respectively. The TLR2/1 agonist PAM3CSK4 (Invivogen), the TLR4 agonist lipopolysaccharide (Invivogen), the Class B CpG oligonucleotides ODN 1826 (synthesised by IDT and resuspended in RNase-free TE buffer), the mouse Sting agonist DMXAA (Cayman) and the human STING agonist (compound #3 from (Raanjulu et al., 2018), referred to as GSK herein—kind gift from Cancer Therapeutics CRC, Australia) were used at indicated concentrations. Aspirin (Sigma—A2093) was resuspended in pure medium to 10 mM, filter sterilised and added to the cells at 2 mM final. All ASOs were synthesised by Integrated DNA Technologies (IDT), and resuspended in RNase-free TE buffer, pH 8.0 (Thermo Fisher Scientific). Cell viability was assessed by adding 1× fresh resazurin solution to the wells (10λ solution made up with 7 mg resazurin [Sigma—R7017] dissolved in 3.5 ml PBS, sterile filtered at […]) for 4 h, prior to reading at with a Fluostar OPTIMA (BMG LABTECH) plate-reader (fluorescence: Excitation 535 nm, Emission 590); wells with medium only and 1× resazurin were used as blanks.

TLR8 [2] = biological target: T1, TLR8; test: R848-driven IP-10 production in THP-1 cells (TLR8); type: cell-based; design: expressed in transfected cells; conditions: 3mer 2'OMe ASO at 1 uM; raw values, Ligand only = 355.752, NT = 134.831;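 also: IP-10 by ELISA in supernatant after 7 h R848 stimulation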

| Substance | TLR8 HEK 5 uM (TLR8 [1]) | TLR8 1 uM (TLR8 [2]) | effect of 3-mer 2′OMe PS oligos on TLR8 sensing in HEK-TLR8 (in words) (TLR8 [1]) | TLR8 100 nM (averaged NF-κB-Luciferase level relative to R848 condition, fold increase) (TLR8 [1]) | TLR8 500 nM (averaged NF-κB-Luciferase level relative to R848 condition, fold increase) (TLR8 [1]) |
| --- | --- | --- | --- | --- | --- |
| CGU (mC*mG*mU) | 1.327 | 346.350 | – | – | – |
| CUC (mC*mU*mC) | 0.685 | 245.566 | – | – | – |
| UUU (mU*mU*mU) | 0.870 | 307.213 | – | – | – |
| UAA (mU*mA*mA) | 0.907 | 224.188 | – | – | – |
| dC*dC*dC (CCC; listed as DNA, chemistry not fully specified) | 0.756 | 181.399 | – | – | – |
| dC*dC*dA (CCA; listed as DNA, chemistry not fully specified) | 0.946 | 181.239 | – | – | – |
| GCU (mG*mC*mU) | 0.810 | 193.279 | – | – | – |
| GGU (mG*mG*mU) | 1.380 | 274.989 | – | – | – |
| CUG (mC*mU*mG) | 1.074 | 264.072 | – | – | – |
| mUmGmA (mU*mG*mA) [UGA, 3-mer 2′OMe PS oligo] | 1.331 | 267.234 | – | – | – |
| dC*dA*dA (CAA; listed as DNA, chemistry not fully specified) | 0.811 | 373.157 | – | – | – |
| UAG (mU*mA*mG) | 1.443 | 226.441 | – | – | – |
| UGC (mU*mG*mC) | 1.032 | 278.054 | – | – | – |
| dC*dG*dA (CGA; listed as DNA, chemistry not fully specified) | 1.512 | 504.099 | – | – | – |
| UAC (mU*mA*mC) | 0.813 | 254.486 | – | – | – |
| dA*dC*dA (DNA ACA; listed as RNA, chemistry not fully specified) | 0.841 | 262.630 | – | – | – |
| dA*dG*dA (DNA AGA; listed as DNA, chemistry not fully specified) | 1.520 | 214.450 | – | – | – |
| CUA (mC*mU*mA) | 0.642 | 243.564 | – | – | – |
| UUG (listed as RNA, chemistry not fully specified) | 1.071 | 347.573 | – | – | – |
| dG*dC*dC [GCC] | 0.701 | 209.536 | – | – | – |
| mGmAmU (mG*mA*mU) [GAU, 3-mer 2′OMe PS oligo] | 0.528 | 147.162 | robustly the most potent | – | – |
| mGmUmA (GUA; all 2'-O-methyl, backbone not given here; further chemistry not fully specified) [shortMut1-3b] | 0.792 | 133.537 | robustly inhibitory | – | – |

| Substance | TLR8 HEK 5 uM (TLR8 [1]) | TLR8 1 uM (TLR8 [2]) | effect of 3-mer 2′OMe PS oligos on TLR8 sensing in HEK-TLR8 (in words) (TLR8 [1]) | TLR8 100 nM (averaged NF-κB-Luciferase level relative to R848 condition, fold increase) (TLR8 [1]) | TLR8 500 nM (averaged NF-κB-Luciferase level relative to R848 condition, fold increase) (TLR8 [1]) |
| --- | --- | --- | --- | --- | --- |
| mGmUmC (mG*mU*mC) [GUC, 3-mer 2′OMe PS oligo] | 0.763 | 131.948 | robustly inhibitory | – | – |
| AAU (antisense mA*mA*mU) | 0.807 | 202.802 | – | – | – |
| AUA (antisense mA*mU*mA) | 0.812 | 157.293 | – | – | – |
| UUC (mU*mU*mC) | 0.968 | 213.878 | – | – | – |
| dA*dA*dG (DNA AAG; listed as DNA, chemistry not fully specified) | 0.858 | 179.302 | – | – | – |
| dA*dA*dC (DNA AAC; listed as DNA, chemistry not fully specified) | 0.696 | 218.889 | – | – | – |
| AUG (mA*mU*mG) | 0.828 | 151.847 | – | – | – |
| mUmCmA (mU*mC*mA) [UCA, 3-mer 2′OMe PS oligo] | 1.115 | 1049.345 | – | – | – |
| UGU (mU*mG*mU) | 1.120 | 331.923 | – | – | – |
| CCU (mC*mC*mU) | 0.613 | 332.524 | – | – | – |
| AGU (antisense mA*mG*mU) | 1.329 | 270.256 | – | – | – |
| CAU (mC*mA*mU) | 0.752 | 388.191 | – | – | – |
| mCmUmU (antisense mC*mU*mU) [660-3] | 0.712 | 167.148 | – | – | – |
| UCU (mU*mC*mU) | 1.414 | 371.961 | – | – | – |
| dC*dC*dG (CCG; listed as DNA, chemistry not fully specified) | 0.899 | 437.264 | – | – | – |
| UAU (mU*mA*mU) | 0.887 | 213.758 | – | – | – |
| mUmGmG (mU*mG*mG) [UGG, 3-mer 2′OMe PS oligo] | 1.860 | 527.575 | potentiated the sensing of R848 | – | – |
| mGmUmG (mG*mU*mG) [GUG, 3-mer 2′OMe PS oligo] | 0.882 | 158.982 | robustly inhibitory | – | – |
| mAmUmC (mA*mU*mC) [AUC, 3-mer 2′OMe PS oligo] | 0.674 | 181.793 | – | – | – |
| CCATCCATGAGGTCCT (antisense; LNA-modified, pattern not given here) [CTNN2B-2545 LNA V1] | – | – | – | 0.675 | 1.169 |
| GCCATGCTGGCTCGGA (antisense; LNA-modified, pattern not given here) [CAMSAP1-2584 LNA V1] | – | – | – | 0.446 | 0.363 |
